Laboratory results reported in patent US20260285875A1, “INHIBITORS OF PARG” (858 Therapeutics, Inc., priority 2023, published 2026).

Biological target: T1, cellular PARG (Homo sapiens, UniProt Q86W56)
T1 construct: endogenous in cells; host or cells: HeLa
Assay: Nuclear PAR accumulation assay (immunofluorescence high-content imaging, MMS-treated HeLa cells)
Type: cell-based
Conditions: 1 hour compound then MMS 50 μg/mL for an additional hour
Summary of the method: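 HeLa cells pretreated with compound for 1 h at 37° C, then given 50 μg/mL MMS for another hour. After methanol fixation, PAR was immunostained with DAPI nuclear counterstain; per-nucleus intensity and percent PAR-positive cells were imaged at 20× (≥1,000 cells/well). IC50 from four-parameter logistic fit.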

T1 sequence (Q86W56 whole entry): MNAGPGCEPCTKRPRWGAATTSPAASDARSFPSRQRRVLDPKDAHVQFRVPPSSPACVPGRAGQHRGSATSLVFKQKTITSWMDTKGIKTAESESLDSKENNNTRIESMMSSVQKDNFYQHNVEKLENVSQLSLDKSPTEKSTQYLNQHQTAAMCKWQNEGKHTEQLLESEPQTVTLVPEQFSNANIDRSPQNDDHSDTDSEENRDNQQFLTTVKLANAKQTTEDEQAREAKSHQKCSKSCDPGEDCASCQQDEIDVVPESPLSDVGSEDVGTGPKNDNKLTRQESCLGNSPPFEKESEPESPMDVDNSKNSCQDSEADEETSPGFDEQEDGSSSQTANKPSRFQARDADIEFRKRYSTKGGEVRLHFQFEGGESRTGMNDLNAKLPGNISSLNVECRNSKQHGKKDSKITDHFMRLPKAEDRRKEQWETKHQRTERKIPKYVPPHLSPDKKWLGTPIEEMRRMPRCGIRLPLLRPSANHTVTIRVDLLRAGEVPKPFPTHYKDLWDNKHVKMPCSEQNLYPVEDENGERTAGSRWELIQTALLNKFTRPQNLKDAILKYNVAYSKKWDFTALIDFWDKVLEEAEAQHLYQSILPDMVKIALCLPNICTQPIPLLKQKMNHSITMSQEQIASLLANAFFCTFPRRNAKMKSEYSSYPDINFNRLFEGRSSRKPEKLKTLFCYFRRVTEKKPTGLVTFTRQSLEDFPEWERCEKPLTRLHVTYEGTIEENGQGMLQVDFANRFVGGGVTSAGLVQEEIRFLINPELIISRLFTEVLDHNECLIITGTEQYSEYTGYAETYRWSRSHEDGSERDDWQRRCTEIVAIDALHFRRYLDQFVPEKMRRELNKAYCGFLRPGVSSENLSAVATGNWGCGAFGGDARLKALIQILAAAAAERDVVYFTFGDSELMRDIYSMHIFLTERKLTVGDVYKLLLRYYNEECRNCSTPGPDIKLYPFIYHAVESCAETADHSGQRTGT

IC50 [nM]	SMILES
< 100	CCN(CC)CC#C[C@@H]1CN=C2N(Cc3cnn(C)c3)C(=O)c3cc(S(=O)(=O)NC4(C)CC4)ccc3N21 [Example 81, (R)-1-(3-(diethylamino)prop-1-yn-1-yl)-4-((1-methyl-1H-pyrazol-4-yl)methyl)-N-(1-methylcyclopropyl)-5-oxo-1,2,4,5-tetrahydroimidazo[1,2-a]quinazoline-7-sulfonamide]
< 100	C[C@@H]1C[C@@H](C)N2C(=N1)N(Cc1cnn(C)c1)C(=O)c1cc(S(=O)(=O)NC3(C)CC3)ccc12 [Example 236, (1R,3R)-1,3-dimethyl-5-((1-methyl-1H-pyrazol-4-yl)methyl)-N-(1-methylcyclopropyl)-6-oxo-2,3,5,6-tetrahydro-1H-pyrimido[1,2-a]quinazoline-8-sulfonamide]
< 100	Cn1cc(CN2C(=O)c3cc(S(=O)(=O)NC4(C)CC4)ccc3N3C2=NC[C@H]3COC2CC2)cn1 [Example 115, (S)-1-(cyclopropoxymethyl)-4-((1-methyl-1H-pyrazol-4-yl)methyl)-N-(1-methylcyclopropyl)-5-oxo-1,2,4,5-tetrahydroimidazo[1,2-a]quinazoline-7-sulfonamide]
< 100	Cc1ncc([C@@H]2CN=C3N(Cc4cnn(C)c4)C(=O)c4cc(S(=O)(=O)NC5(C)CC5)ccc4N32)s1 [Example 121, (S)-4-((1-methyl-1H-pyrazol-4-yl)methyl)-N-(1-methylcyclopropyl)-1-(2-methylthiazol-5-yl)-5-oxo-1,2,4,5-tetrahydroimidazo[1,2-a]quinazoline-7-sulfonamide]
< 100	Cn1cc(CN2C(=O)c3cc(S(=O)(=O)NC4(C)CC4)ccc3N3C2=NC[C@H]3C#Cc2ncnn2C)cn1 [Example 196, (R)-1-((1-methyl-1H-1,2,4-triazol-5-yl)ethynyl)-4-((1-methyl-1H-pyrazol-4-yl)methyl)-N-(1-methylcyclopropyl)-5-oxo-1,2,4,5-tetrahydroimidazo[1,2-a]quinazoline-7-sulfonamide]
< 100	C[C@@H]1[C@H](CO)N=C2N(Cc3cnn(C)c3)C(=O)c3cc(S(=O)(=O)NC4(C)CC4)ccc3N21 [Example 294, (1R,2R)-2-(hydroxymethyl)-1-methyl-4-((1-methyl-1H-pyrazol-4-yl)methyl)-N-(1-methylcyclopropyl)-5-oxo-1,2,4,5-tetrahydroimidazo[1,2-a]quinazoline-7-sulfonamide]
100 to 1000	Cn1cc(CN2C(=O)c3cc(S(=O)(=O)NC4(C)CC4)ccc3N3C2=N[C@H]2COCC[C@H]23)cn1 [Example 158, (7aR,11aR)-6-((1-methyl-1H-pyrazol-4-yl)methyl)-N-(1-methylcyclopropyl)-5-oxo-5,6,7a,10,11,11a-hexahydro-8H-pyrano[3′,4′:4,5]imidazo[1,2-a]quinazoline-3-sulfonamide]
< 100	Cc1cc(C#C[C@@H]2CN=C3N(Cc4cnn(C)c4)C(=O)c4cc(S(=O)(=O)NC5(C)CC5)ccc4N32)sn1 [Example 194, (R)-4-((1-methyl-1H-pyrazol-4-yl)methyl)-N-(1-methylcyclopropyl)-1-((3-methylisothiazol-5-yl)ethynyl)-5-oxo-1,2,4,5-tetrahydroimidazo[1,2-a]quinazoline-7-sulfonamide]

The remaining lines, values behind:

SMILES	IC50 [nM]
Cn1cc(CN2C(=O)c3cc(S(=O)(=O)NC4(C)CC4)ccc3N3C2=NC[C@H]3C#Cc2ccccn2)cn1 [Example 67, (R)-4-((1-methyl-1H-pyrazol-4-yl)methyl)-N-(1-methylcyclopropyl)-5-oxo-1-(pyridin-2-ylethynyl)-1,2,4,5-tetrahydroimidazo[1,2-a]quinazoline-7-sulfonamide]	< 100
Cn1cc(CN2C(=O)c3cc(S(=O)(=O)NC4(C)CC4)ccc3N3C2=NCC3C#Cc2ccncn2)cn1 (centres unmarked) [Example 132, 4-((1-methyl-1H-pyrazol-4-yl)methyl)-N-(1-methylcyclopropyl)-5-oxo-1-(pyrimidin-4-ylethynyl)-1,2,4,5-tetrahydroimidazo[1,2-a]quinazoline-7-sulfonamide]	100 to 1000
CCN1C(=O)c2cc(S(=O)(=O)NC3(C)CC3)ccc2N2C1=NC[C@H]2C#CC1(N(C)C)CC1 [Example 186, (R)-1-((1-(dimethylamino)cyclopropyl)ethynyl)-4-ethyl-N-(1-methylcyclopropyl)-5-oxo-1,2,4,5-tetrahydroimidazo[1,2-a]quinazoline-7-sulfonamide]	< 100
[2H]C([2H])(c1cnn(C)c1)N1C(=O)c2cc(S(=O)(=O)NC3(C)CC3)ccc2N2C1=NC[C@H]2C#CC(C)(C)N [Example 105, (R)-1-(3-amino-3-methylbut-1-yn-1-yl)-4-((1-methyl-1H-pyrazol-4-yl)methyl-d2)-N-(1-methylcyclopropyl)-5-oxo-1,2,4,5-tetrahydroimidazo[1,2-a]quinazoline-7-sulfonamide]	100 to 1000
[2H]C([2H])(c1cnn(C)c1)N1C(=O)c2cc(S(=O)(=O)NC3(C)CC3)ccc2N2C1=NC[C@H]2C#Cc1nn(C)nc1C [Example 266, (R)-1-((2,5-dimethyl-2H-1,2,3-triazol-4-yl)ethynyl)-4-((1-methyl-1H-pyrazol-4-yl)methyl-d2)-N-(1-methylcyclopropyl)-5-oxo-1,2,4,5-tetrahydroimidazo[1,2-a]quinazoline-7-sulfonamide]	< 100
Cc1cnn2c(C#C[C@@H]3CN=C4N(C)C(=O)c5cc(S(=O)(=O)NC6(C)CC6)ccc5N43)cnc2c1 [Example 182, (R)-4-methyl-N-(1-methylcyclopropyl)-1-((7-methylimidazo[1,2-b]pyridazin-3-yl)ethynyl)-5-oxo-1,2,4,5-tetrahydroimidazo[1,2-a]quinazoline-7-sulfonamide]	< 100
CCN1C(=O)c2cc(S(=O)(=O)NC3(C)CC3)ccc2N2C1=NC[C@H]2C#CC1CC1 [Example 188, (R)-1-(cyclopropylethynyl)-4-ethyl-N-(1-methylcyclopropyl)-5-oxo-1,2,4,5-tetrahydroimidazo[1,2-a]quinazoline-7-sulfonamide]	< 100
[2H]C([2H])(c1cnn(C)c1)N1C(=O)c2cc(S(=O)(=O)NC3(C)CC3)ccc2N2C1=NC[C@H]2C#Cc1cncnc1N [Example 268, (R)-1-((4-aminopyrimidin-5-yl)ethynyl)-4-((1-methyl-1H-pyrazol-4-yl)methyl-d2)-N-(1-methylcyclopropyl)-5-oxo-1,2,4,5-tetrahydroimidazo[1,2-a]quinazoline-7-sulfonamide]	< 100
Cn1cc(CN2C(=O)c3cc(S(=O)(=O)NC4(C)CC4)ccc3N3C2=NC[C@H]3/C=C/c2ccccc2)cn1 [Example 40, (R,E)-4-((1-methyl-1H-pyrazol-4-yl)methyl)-N-(1-methylcyclopropyl)-5-oxo-1-styryl-1,2,4,5-tetrahydroimidazo[1,2-a]quinazoline-7-sulfonamide]	< 100
CN1C(=O)c2cc(S(=O)(=O)NC3(C)CC3)ccc2N2C1=NC[C@H]2C#Cc1ccnn1C [Example 185, (R)-4-methyl-1-((1-methyl-1H-pyrazol-5-yl)ethynyl)-N-(1-methylcyclopropyl)-5-oxo-1,2,4,5-tetrahydroimidazo[1,2-a]quinazoline-7-sulfonamide]	< 100
Cc1cc(F)ccc1-c1cc(S(=O)(=O)NC2(C)CC2)cc2c1N1CC(C)(C)N=C1N(C)C2=O [Example 61, 9-(4-fluoro-2-methylphenyl)-2,2,4-trimethyl-N-(1-methylcyclopropyl)-5-oxo-1,2,4,5-tetrahydroimidazo[1,2-a]quinazoline-7-sulfonamide]	100 to 1000
[2H]C([2H])([2H])N1C(=O)c2cc(S(=O)(=O)NC3(C)CC3)ccc2N2C1=NCC2C#Cc1cnc2cccnn12 (centres unmarked) [Example 184, 1-(imidazo[1,2-b]pyridazin-3-ylethynyl)-4-(methyl-d3)-N-(1-methylcyclopropyl)-5-oxo-1,2,4,5-tetrahydroimidazo[1,2-a]quinazoline-7-sulfonamide]	< 100
C[C@@H]1CN(c2cc(S(=O)(=O)NC3(C)CC3)cc3c2N2C(=NC[C@H]2C)N(Cc2cnn(C)c2)C3=O)CCN1 [Example 78, (R)-1-methyl-4-((1-methyl-1H-pyrazol-4-yl)methyl)-N-(1-methylcyclopropyl)-9-((R)-3-methylpiperazin-1-yl)-5-oxo-1,2,4,5-tetrahydroimidazo[1,2-a]quinazoline-7-sulfonamide]	100 to 1000
CCN1C(=O)c2cc(S(=O)(=O)NC3(C)CC3)ccc2N2C1=NC[C@H]2C#Cc1cnc2cc(C#N)cnn12 [Example 206, (R)-1-((7-cyanoimidazo[1,2-b]pyridazin-3-yl)ethynyl)-4-ethyl-N-(1-methylcyclopropyl)-5-oxo-1,2,4,5-tetrahydroimidazo[1,2-a]quinazoline-7-sulfonamide]	< 100
Cn1cc(CN2C(=O)c3cc(S(=O)(=O)NC4(C)CC4)cc(-c4ccc(Cl)cc4)c3N3CCN=C23)cn1 [Example 21, 9-(4-chlorophenyl)-4-((1-methyl-1H-pyrazol-4-yl)methyl)-N-(1-methylcyclopropyl)-5-oxo-1,2,4,5-tetrahydroimidazo[1,2-a]quinazoline-7-sulfonamide]	100 to 1000
CN1C(=O)c2cc(S(=O)(=O)NC3(C)CC3)ccc2N2C1=NC[C@H]2C#Cc1cnc2ccc(C(F)(F)F)nn12 [Example 201, (R)-4-methyl-N-(1-methylcyclopropyl)-5-oxo-1-((6-(trifluoromethyl)imidazo[1,2-b]pyridazin-3-yl)ethynyl)-1,2,4,5-tetrahydroimidazo[1,2-a]quinazoline-7-sulfonamide]	< 100
COC1(C(=O)N2CCN(c3cc(S(=O)(=O)NC4(C)CC4)cc4c3N3C(=NC[C@H]3C)N(C)C4=O)CC2)CC1 [Example 125, (R)-9-(4-(1-methoxycyclopropane-1-carbonyl)piperazin-1-yl)-1,4-dimethyl-N-(1-methylcyclopropyl)-5-oxo-1,2,4,5-tetrahydroimidazo[1,2-a]quinazoline-7-sulfonamide]	< 100
C[C@@H]1CN=C2N(Cc3cnn(C)c3)C(=O)c3cc(S(=O)(=O)NC4(C)CC4)sc3N21 [Example 41, (R)-8-methyl-5-((1-methyl-1H-pyrazol-4-yl)methyl)-N-(1-methylcyclopropyl)-4-oxo-4,5,7,8-tetrahydroimidazo[1,2-a]thieno[3,2-e]pyrimidine-2-sulfonamide]	100 to 1000
